Structures can show the parent of a compound that is named as a salt. Where no end group is shown, it is not given here. [ ]: non-standard residue; d: D form. Phe(4-NH2) = Nc1ccc(C[C@H](N)C(=O)O)cc1; Sta = CC(C)C[C@H](N)[C@@H](O)CC(=O)O; Hyp = O=C(O)[C@@H]1C[C@@H](O)CN1; Nip = nipecotic acid residue; Orn = NCCC[C@H](N)C(=O)O; Dab = NCC[C@H](N)C(=O)O; Imid = not defined here; Dap = NC[C@H](N)C(=O)O
test system: PAR-2; assay: Inhibition of PAR-2 activating peptide (AP2) calcium signaling in cells pretreated with antagonist; format: cell-based, human; parameters: key to PAR-2 AP2 Signaling Treated/Control (T/C) / PAR-2 AP2 Signaling Treated/Control: AUC of calcium mobilization, treated ÷ control wells; conditions: mimetic antagonists; AUC of calcium mobilization treated/control; initially screened at 1 mM compound
Procedure: In order to assess the potential of peptides and molecules selected above to block PAR-2 signaling, cells were pretreated with potential antagonist peptides for a predetermined amount of time and were subsequently treated with various GPCR agonists. Confluent Lewis lung carcinoma (LLC) cells were loaded for 30-60 minutes with the fluorescent dye Fluo-4. Final concentration 4 uM Fluo-4, 0.02% pluronic acid in physiological buffer. Cells were then washed with assay buffer, (HBSS containing 1 mM CaCl2, 1 mM MgSO4, and 2.5 mM probenecid). Cells were stimulated with various doses of PAR-2 activating peptide, PAR-1 activating peptide or ATP. Fluorescence was monitored using a Wallac 1470 fluorescent plate reader. (See Al-ani et. al Journal of Pharmacology and Experimental Therapeutics 290:2, 753-760). Additional compound screening was performed using U87-MG human glioma cells. In this assay cells were labeled with FLIPR Calcium 3 dye (Component A), which was dissolved in 10 mls of Assay Buffer without Probenecid. Loading buffer was prepared by diluting Component A with an additional 90 mls of Assay Buffer without Probenecid, giving a total volume of a 100 ml. For plate loading, 11 mls of FLIPR Calcium 3 dye (Component A) is placed into a 15 ml conical tube+110 μl of 250 mM Probenecid, at a final in-well working volume of 2.5 mM. Finally, 50 μl of Calcium 3 dye was added wells containing 100 μl media, and incubated 1 hr, 37° C., 5% CO2. Calcium signaling was then measured using a Flexstation II (Molecular Devices) following manufacturer's instructions.
Potential antagonist compounds were initially screened at 1 mM compound concentration. Those compounds with activity were then subjected to additional confirmatory testing. Activity is reported as treated/controlled (T/C) where the area under the curve (AUC) of calcium mobilization plots in treated wells is divided by the AUC of calcium mobilization plots in control wells to generate a measure of inhibition.

| Molecule | PAR-2 AP2 Signaling Treated/Control |
| --- | --- |
| NCCCCCC(=O)Nc1nc(CC(=O)NCC2CCCCC2)cs1 [ENMD-1560, 6-amino-hexanoic acid {4-[(cyclohexylmethyl-carbamoyl)-methyl]-thiazol-2-yl}-amide] | 0.48 |
| CC(C)CNC(=O)c1ccc(NCCCCN)nc1 [ENMD-1562, 6-(4-aminobutylamine)-3-(isobutyl)-nicotinoyl amide] | 0.57 |
| CC(C)CCn1c(=O)n(CCc2ccc(NC(C)C)cc2)c2ccccc21 [ENMD-1563, 1-[4-(isopropylamine)-phenethyl]-3-isopentyl-1H-benzo[d]imidazole-2(3H)-one] | 0.62 |
| CC(C)Nc1ccc(CCn2c(=O)n(CCC3CCCCC3)c3ccccc32)cc1 [ENMD-1564, 1-[4-(isopropylamine)-phenethyl]-3-(2-cyclo-hexylethyl)-1H-benzo[d]imidazole-2(3H)-one] | 1.16 |
| NCCCCOc1ccc(OCc2ccccc2)cc1 [ENMD-1566, 4-(4-(benzyloxy)phenoxy)butan-1-amine hydrochloride] | 0.01 |
| Cl.NCCCOc1ccc(OCC2CCCCC2)cc1 [ENMD-1567, 3-(4-(cyclohexylmethoxy)phenoxy)propan-1-amine hydrochloride] | 0.08 |
| NCCCCC(=O)Nc1ccc(C(=O)NCC2CCCCC2)cc1 [ENMD-1568, 4-(5-aminopentanamide)-N-(cyclohexylmethyl)-benzamide] | 0.92 |
| CC(C)CNC(=O)c1cccn1CCCCCCN [ENMD-1569, 1-(6-aminohexyl)-2-[N′-isobutyl]-pyrrole carboxamide] | 0.77 |
| NCCCCCCn1cccc1C(=O)NCC1CCCCC1 [ENMD-1570] | 0.05 |
| NCCCCNC(=O)c1cnc(NCC2CCCCC2)cn1 [ENMD-1571, 4-aminobutyl-6-cyclohexanemethylamino-2-pyrazine amide] | 0.81 |
| O=C(NCCC1CCNCC1)c1cnc(NCC2CCCCC2)cn1 [ENMD-1572, 4-(piperidinethyl)-6-cyclohexanemethylamino-2-pyrazine amide] | 0.10 |
| CC(C)CCn1c(=O)n(CCc2ccc(N)cc2)c2ccccc21 [ENMD-1573, 1-(4-aminophenethyl)-3-isopentyl-1H-benzo[d]imidazole-2(3H)-one] | 0.01 |
| Nc1ccc(CCn2c(=O)n(CCC3CCCCC3)c3ccccc32)cc1 [ENMD-1574, 1-(4-aminophenethyl)-3-(2-cyclohexylethyl)-1H-benzo[d]imidazole-2(3H)-one] | 0.01 |
| CC(C)CC(=O)N1CC2CN(C(=O)Cc3ccc(N)cc3)CC2C1 (stereo not drawn) [ENMD-1763] | 0.83 |
| CC(C)CC(=O)N1CC2CN(C(=O)CCCCCN)CC2C1 (stereo not drawn) [ENMD-1764] | 0.96 |
| NCCCCCNC(=O)c1ccc(C(=O)NCC2CCCCC2)cc1 [ENMD-1766, N^1-(5-aminopentyl)-N-4-(cyclohexylmethyl)-terephthalamide] | 0.73 |
| Cl.O=C(CC1CCCCC1)N1CCN(C(=O)C2CCNCC2)CC1 [ENMD-1770, N^1-2-cyclohexylethanoyl-N-4-piperidine-4-carbonyl-piperazine hydrochloride] | 0.91 |
| Cl.O=C(CC1CCCCC1)Nc1ccc(NC(=O)C2CCCNC2)cc1 (stereo not drawn) [ENMD-1771, N-(4-(2-cyclohexylacetamido)phenyl) piperidine-3-carboxamide hydrochloride] | 0.05 |
| Cl.O=C(CC1CCCCC1)Nc1ccc(NC(=O)C2CCNCC2)cc1 [ENMD-1772, N-(4-(2-cyclohexylacetamido)phenyl) piperidine-4-carboxamide hydrochloride] | 0.73 |
| Cl.O=C(CC1CCCCC1)N1CCN(C(=O)C2CCCNC2)CC1 (stereo not drawn) [ENMD-1773, N1-2-cyclohexylethanoyl-N-4-piperidine-3-carbonyl-piperazine hydrochloride] | 0.85 |
| Cl.N[C@@H]1CCC[C@H](C(=O)N2CCN(C(=O)CC3CCCCC3)CC2)C1 [ENMD-1774, N^1-2-cyclohexylethanoyl-N-4-cis-3-amino-cyclohexane-carbonyl piperazine hydrochloride] | 0.75 |
| NCCCCCNc1cnc(C(=O)NCC2CCCCC2)cn1 [ENMD-1775, cyclohexylmethyl-6-(5-aminopentaneamino)-2-pyrazine amide] | 0.90 |
| NCCCCCC(=O)N1CC2CN(C(=O)CC3CCCCC3)CC2C1 (stereo not drawn) [ENMD-1776] | 0.82 |
| Nc1ccc(CC(=O)N2CC3CN(C(=O)CC4CCCCC4)CC3C2)cc1 (stereo not drawn) [ENMD-1777, 1-(2-(2-(4-aminophenyl)acetyl-hexahydro-pyrrolo[3,4-c]pyrrol-5-(1H)-yl)-2-cyclohexyl)ethan-1-one] | 0.64 |
| NCCC1CCN(c2cnc(C(=O)NCCC3CCCCC3)cn2)CC1 [ENMD-1778, cyclohexylethyl-6-(4-aminoethylpiperdine)-2-pyrazine amide] | 0.05 |
| Cl.N[C@H]1CC[C@H](C(=O)N2CCN(C(=O)CC3CCCCC3)CC2)C1 [ENMD-1779, N1-2-cyclohexylethanoyl-N-4-(1R,3R)-1-amino-cyclopentane-3-carbonyl piperazine hydrochloride] | 0.89 |
| Cl.O=C(CC1CCCCC1)N1CCN(C(=O)C2CNCCO2)CC1 (stereo not drawn) [ENMD-1780, N^1-2-cyclohexylethanoyl-N-4-morpholine-2-carbonyl-piperazine hydrochloride] | 0.86 |
| Cl.N[C@H]1CC[C@@H](C(=O)N2CCN(C(=O)CC3CCCCC3)CC2)CC1 [ENMD-1781, N^1-2-cyclohexylethanoyl-N-4-cis-4-amino-cyclohexane-carbonyl piperazine hydrochloride] | 0.71 |

same assay, conditions: mimetic antagonists; AUC of calcium mobilization treated/control; initially screened at 1 mM compound; hydrochloride

| Molecule | PAR-2 AP2 Signaling Treated/Control |
| --- | --- |
| CC(C)CC(=O)Nc1nc(CC(=O)NCCCCCN)cs1 [ENMD-1561, N-{4-[(5-Amino-pentylcarbamoyl)-methyl]-thiazol-2-yl}-3-methyl-butyramide hydrochloride] | 0.89 |

same assay, conditions: peptides; AUC of calcium mobilization treated/control; initially screened at 1 mM compound

| Molecule | PAR-2 AP2 Signaling Treated/Control (T/C) |
| --- | --- |
| IG-Dab (Ile-Gly-[Dab]) [ENMD-1024, Dab=diamino butanoic acid] | 0.27 |
| IG-Dap (Ile-Gly-[Dap]) [ENMD-1025, Dap=diamino proprionic acid] | 0.31 |
| IG-Orn (Ile-Gly-[Orn]) [ENMD-1029] | 0.42 |
| IG-dK (Ile-Gly-[dK]) [ENMD-1087] | 0.33 |
| IGK-amide (Ile-Gly-Lys-NH2) [ENMD-1021] | 0.67 |
| IGR [ENMD-1023] | 0.23 |
| L-HyP-GK (L[Hyp]GK) [ENMD-1061] | 1.16 |
| L-HyP-K (Leu-[Hyp]-Lys) [ENMD-1060] | 1.29 |
| L-Imid-GK (L[Imid]GK; reading uncertain; also: printed as L-Imid-GK) [ENMD-1063] | 0.94 |
| L-Imid-K (Leu-[Imid]-Lys; reading uncertain; also: printed as L-Imid-K) [ENMD-1062] | 0.94 |
| L-NiP-K (Leu-[Nip]-Lys) [ENMD-1058] | 1.58 |
| L-Nip-GK (L[Nip]GK) [ENMD-1059] | 0.97 |
| L-Sta-GK (L[Sta]GK) [ENMD-1057] | 1.40 |
| L-Sta-K (Leu-[Sta]-Lys) [ENMD-1056] | 1.35 |
| LIG-(4-aminoF) (LIG[Phe(4-NH2)]) [ENMD-1030] | 0.05 |
| LIG-Dab (LIG[Dab]) [ENMD-1026] | 0.23 |
| LIG-Dap (LIG[Dap]) [ENMD-1027] | 0.30 |
| LIG-Orn (LIG[Orn]) [ENMD-1028, Orn=ornithine] | 0.36 |
| LIG-dK (LIG[dK]) [ENMD-1384] | 0.16 |

Source: patent publication US20060063930A1, “Compositions and methods comprising proteinase activated receptor antagonists” (priority 2004, published 2006)
